Source: US11331327B2, “Antibacterial use of halogenated salicylanilides” (UNION therapeutics A/S, priority 2014, dated 2022)
Marks after values point to notes of the source that are not given here.

System: MRSA 01, MRSA 15, MRSA 16
Assay: Mutational frequency evaluation, Example 1
Type: cell-based, Staphylococcus aureus
Conditions: for Resistance mutation rate at MIC × 1: tested against one strain: MRSA 01
Procedure: Adequate dilutions were plated on plates without the compound.
Viable cell growth was enumerated after 48 hours of incubation at 37° C.
Ten replicates were carried out for each strain and fusidic acid, mupirocin and retapamulin were used as controls for the MRSA 01 strain.

Compound	Resistance mutation rate at MIC × 1	mutational frequency at MIC×1 (text summary of Table 4)
CC(=O)O[C@H]1C[C@@]2(C)[C@@H](C[C@@H](O)[C@H]3[C@@]4(C)CC[C@@H](O)[C@@H](C)[C@@H]4CC[C@@]32C)/C1=C(\CCC=C(C)C)C(=O)O [Fusidic acid]	≥4 × 10^−5*	–
O=C(Nc1ccc([N+](=O)[O-])cc1Cl)c1cc(Cl)ccc1O [Niclosamide, 5-chloro-N-(2-chloro-4-nitrophenyl)-2-hydroxybenz-amide]	–	< 4×10^−10
C=C[C@]1(C)C[C@@H](OC(=O)CS[C@@H]2C[C@H]3CC[C@@H](C2)N3C)[C@]2(C)[C@H](C)CC[C@]3(CCC(=O)[C@H]32)[C@@H](C)[C@@H]1O [Retapamulin]	≥4 × 10^−5*	–
C/C(=C\C(=O)OCCCCCCCCC(=O)O)C[C@@H]1OC[C@H](C[C@@H]2O[C@H]2[C@@H](C)[C@H](C)O)[C@@H](O)[C@H]1O [Mupirocin]	≥4 × 10^−5*	–
